We go through two substances from article PMC5880951, “Pentocin MQ1: A Novel, Broad-Spectrum, Pore-Forming Bacteriocin From Lactobacillus pentosus CS2 With Quorum Sensing Regulatory Mechanism and Biopreservative Potential” (Frontiers in Microbiology, 2018).

In experiment [1] the test system is Micrococcus spp. Conditions: ref Mota-Meira et al., 2000; cited from earlier work. The procedure:
(§1) Pentocin MQ1 was strongly inhibitory against L. monocytogenes NCTC 10890, M. luteus ATCC 10240, and B. cereus ATCC14579 at micromolar concentrations. High activity at low concentration is a desirable property of natural biopreservatives (Bali et al., [2016]). MIC-values for nisin A against Micrococcus spp. and Bacillus spp. (Mota-Meira et al., [2000]) are lower than that of pentocin MQ1. […] After 120 min ...

Experiment [2] deals with Bacillus spp. Conditions: ref Mota-Meira et al., 2000; cited from earlier work. The procedure:
as §1

Experiment [3] deals with M. luteus. Conditions: within 30 min; ref Barbour et al., 2016; cited from earlier work. The source says:
The two main modes of action of LAB bacteriocins against Gram-positive bacteria are pore formation and inhibition of cell wall synthesis (Cotter et al., [2013]). […] This implies that pore formation is a more rapid killing mechanism.

Experiment [4] concerns Micrococcus luteus ATCC 10240. The experiment can be described thus: Membrane permeabilization (pore formation), SYTOX green. Conditions: 5 μM SYTOX green, pentocin MQ1 at 5 X MIC, nisin as positive control, Real-Time PCR read-out, triplicates. The class given is cell-based. The method, then: Pore formation assay was done to understand the mechanism of action of pentocinMQ1. M. luteus was grown in Mueller-Hinton broth until OD600nm = 0.45 after which 5 μM SYTOX green dye (Invitrogen, USA) was added. Ninety microliters of stained bacteria was added to MicroAmp Fast Optical 96-well reaction plate (Applied Biosystems, Life Technologies, USA). After a stable line base was attained, 10 μl of pentocin MQ1 (5 X MIC) was added to the stained bacteria. Sodium phosphate buffer (5 mM) and nisin (Sigma-Aldrich, USA) were added to stained bacteria in different wells to serve as negative and positive controls, respectively. Experiments were done in triplicates. Fluorescence as a result of binding of SYTOX green to leaked intracellular DNA was monitored using Real-Time PCR (Applied Biosystems, USA).
(Quantitative PCR measures a nucleic acid by following its amplification.)

Regarding nisin A, the “MIC compared with pentocin MQ1” value in experiment [1] and in experiment [2] was “lower” throughout.
As for nisin, the increase in fluorescence result in experiment [3] is “caused an increase in fluorescence intensity”. Moreover, the “fluorescence intensity (SYTOX green binding to leaked intracellular DNA)” value in experiment [4] was “higher fluorescence intensity”.
